Experimental data as given in patent US10407445B2, “Hepatitis C virus inhibitors” (ENANTA PHARMACEUTICALS, INC., priority 2013, dated 2019).

How the values were obtained:
Format in all cases: cell-based
HCV GT 1a replicon = assay: HCV replicon assay, stable GT 1a replicon (Renilla luciferase); conditions: Hepatitis C virus, GT1A; HCV GT 1a replicon, 72 h; read-out: EC50 1a
Experimental: (§1) The activity of compounds was determined against HCV replicons representing genotypes (GT) 1a, 1b, 2a, and 3a. To generate stable Huh-7.5-based cell lines, HCV replicons were engineered to express the Renilla luciferase reporter (hRluc) fused to the neomycin phosphotransferase (Neo) gene. GT2a and GT3a HCV replicons were based on the JFH-1 subgenomic replicon (Kato et al. 2003 Gastroenterology, 125:1808-1817), in which the NS5A gene was replaced with that of strains J6 and S52 (GT2a and G3a, respectively). The activity of compounds against GT1a replicons encoding NS5A mutations (M28T, Q30R, L31M, Y93C, and Y93H) was also determined in a transient replication assay. The parental GT1a and GT2a replicons (pH/SG-Neo(L+I) and pSG-Neo-JFH1, respectively) were licensed from Apath LLC (Saint Louis, Mo.). The parental GT 1b replicon (pFKi389lucubineo_3_3′_ET) was licensed from ReBLikon GmbH (Germany). HCV replicons were constructed by standard molecular biology techniques described below. All replicon constructs were verified by restriction enzyme digestion and DNA sequencing.
pH/SG-Neo(L+I) was modified to add the firefly luciferase reporter gene and additional adaptive mutations by replacing the pH/SG-Neo(L+I) NS3-NS5A coding region with the corresponding sequence of pH77-S, creating pH/SG-lucubineo-H77S as described (Borawski J et al. 2009, J Virol 83: 10058-10074). Subsequently, the firefly luciferase-Neo cassette was replaced with the hRluc-Neo cassette. To create a unique cloning site, the NotI restriction site in NS5B was removed using QuickChange II XL Site-Directed Mutagenesis Kit (Agilent) and the following primers: NotI KO Fwd 5′-CTCAAACTCACTCCAATAGCTGCCGCTGGCCGGCTGGAC-3′(G→T mutation removing NotI site underlined) (SEQ. ID No. 1) and NotI KO Rev 5′-GTCCAGCGGGCCAGCGGCAGCTATTGGAGTGAGTTTGAG-3′(C→A mutation removing NotI site underlined) (SEQ. ID No. 2). The resulting vector, pH/SG-lucubineo-H775-NotIKO, was sequenced to confirm the NS5B gene. The hRluc-Neo cassette was PCR amplified from pF9 cytomegalovirus (CMV) hRluc-Neo Flexi(R) (Promega) using Accuprime Super Mix II (Invitrogen) and the following primers, which introduce restriction sites: […]
The amplification product was subcloned into pCR2.1-TOPO (Invitrogen). The resulting plasmid was digested with AscI and NotI, and the excised hRluc-Neo fragment was ligated using the Promega Rapid Ligation Kit (Promega) into pH/SG-lucubineo-H775-NotIKO digested with the same enzymes.
Stable HCV replicon cell lines were grown in complete media (Dulbecco's modified Eagle medium [DMEM], 2 mM L-glutamine, 0.1 mM essential amino acids, 1 mM sodium pyruvate, 10% heat inactivated fetal bovine serum) with the addition 500 μg/ml […] (G418). Huh7-lunet cells were maintained in the same medium without the addition of G418. Cells were routinely passaged at a dilution of 1:4 two times a week. The assay medium for both luciferase reporter HCV replicon and cytotoxicity assays used phenol red-free DMEM and lacked G418. For each stable replicon assay, a sixteen point half-log dilution series of compound was stamped (0.5 ul compound per well) into three replica 384-well plates, to which cells were added directly (4000 cells/well). For the transient replication assay, Huh7-lunet cells in ice-cold phosphate buffered saline (PBS) were electroporated (BioRad electroporator; 950 uF, 270V) with 10 ug purified in vitro transcribed HCV replicon RNA, followed by resuspension in complete media and plating (8000 cells/well) into compound stamped 384-well plates. Luciferase activity of compound-treated cells was measured relative to DMSO-treated cells after 72 h incubation using RENILLA-GLO™ Luciferase Assay (Promega). Cytotoxicity (CC50) in the GT1b replicon cell line was analyzed using CELL TITER-GLO™ (Promega). […]

HCV GT 3a replicon = assay: HCV replicon assay, GT2a chimeric replicon expressing NS5A from GT3a strain S52; conditions: Hepatitis C virus, 72 h, read-out: EC50 3a
Experimental: as §1
The plasmid pSG-hRlucNeo-JFH1 was generated from pSG-Neo-JFH1 (Kato et al. 2003, Gastroentrology 125:1808-1817). A fragment containing the JFH-1 5′ NTR—hRluc-Neo gene and two unique restriction sites (AgeI and PmeI) was synthesized (Integrated DNA Technologies, Coralville, Iowa). The resulting synthetic plasmid was digested with AgeI and PmeI and the excised fragment (5′NTR-hRluc-Neo) was ligated into pSG-Neo-JFH1 digested with the same enzymes to generate pSG-hRlucNeo-JFH1. To allow expression of heterologous NS5A sequences, an NS5A shuttle vector was generated from pSG-Neo-JFH1, in which the entire coding sequence of NS5A plus the first eight codons of NS5B were replaced with an AfeI restriction site. This was done by Infusion cloning (Clontech, Mountain View, Calif.) from two PCR products that were generated using pSG-Neo-JFH1 as a template and the following primer pairs:
Underlined sequences denote regions of overlap necessary for Infusion cloning. Purified PCR products were cloned directly into an NsiI/SnaBI digested pSG-Neo-JFH1 following the manufacturer's instructions to generate pSG-Neo-JFH1-5Ashuttle. The 2023 base pair AgeI/PmeI fragment from pSG-hRlucNeo-JFH1 was then ligated into pSG-Neo-JFH1-5Ashuttle to generate pSG-hRlucNeo-JFH1-5Ashuttle. To generate the 2a-2a-(J6) and 2a-3a-(S52) NS5A chimeric replicons, the full length NS5A sequences from GT2a strain J6 (accession AF177036) and GT3a strain S52 (accession GU814263), with the addition of the first eight codons of JFH-1 NS5B (5′-TCCATGTCATACTCCTGGACCGGG-3′), were synthesized by GeneArt (Life Technologies, Carlsbad Calif.). J6 and S52 NS5A sequences were then PCR amplified from the synthetic clones using the appropriate forward primer:
Underlined sequences denote regions of overlap with pSG-hRlucNeo-JFH1-5Ashuttle necessary for Infusion cloning. Purified PCR products were directly cloned into AfeI-digested shuttle vector by Infusion cloning following the manufacturer's instructions.
Stable HCV replicon cell lines were grown in complete media (Dulbecco's modified Eagle medium [DMEM], 2 mM L-glutamine, 0.1 mM essential amino acids, 1 mM sodium pyruvate, 10% heat inactivated fetal bovine serum) with the addition 500 μg/ml […] (G418). Huh7-lunet cells were maintained in the same medium without the addition of G418. Cells were routinely passaged at a dilution of 1:4 two times a week. The assay medium for both luciferase reporter HCV replicon and cytotoxicity assays used phenol red-free DMEM and lacked G418. For each stable replicon assay, a sixteen point half-log dilution series of compound was stamped (0.5 ul compound per well) into three replica 384-well plates, to which cells were added directly (4000 cells/well). […]

[1] = test system: GT1a replicon encoding NS5A mutation Q30R; assay: Transient replication assay, GT1a replicon with NS5A mutation Q30R; conditions: Hepatitis C virus, read-out: EC50 1a Q30R

Compound: COC(=O)N[C@H](C(=O)N1CC2(CCOCC2)C[C@H]1c1ncc(-c2ccc(-c3ccc4c(ccc5nc([C@@H]6CCCN6C(=O)[C@@H](NC(=O)OC)C(C)C)[nH]c54)c3)cc2)[nH]1)C(C)C [Example 83]
- EC50 (HCV GT 1a replicon): 0.029 nM
- EC50 (HCV GT 3a replicon): 0.7 nM
- EC50 [1]: 1 nM

Compound: COC(=O)N[C@H](C(=O)N1C[C@]2(CCCOC2)C[C@H]1c1ncc(-c2ccc(-c3ccc4c(ccc5nc([C@@H]6C[C@@]7(CCCOC7)CN6C(=O)[C@@H](NC(=O)OC)C(C)C)[nH]c54)c3)cc2)[nH]1)C(C)C [Compound 11]
- EC50 (HCV GT 1a replicon): 0.023 nM
- EC50 (HCV GT 3a replicon): 0.4 nM
- EC50 [1]: 0.05 nM

Compound: COC(=O)N[C@H](C(=O)N1C[C@]2(CCCOC2)C[C@H]1c1ncc(-c2ccc3cc4cc(-c5cnc([C@@H]6C[C@@H]7CCCC[C@@H]7N6C(=O)[C@@H](NC(=O)OC)C(C)C)[nH]5)ccc4cc3c2)[nH]1)C(C)C [Compound 13]
- EC50 (HCV GT 1a replicon): 0.036 nM
- EC50 (HCV GT 3a replicon): 0.9 nM
- EC50 [1]: 0.01 nM

Compound: COC(=O)N[C@H](C(=O)N1C[C@@]2(CCCO2)C[C@H]1c1ncc(-c2ccc(-c3ccc4c(ccc5nc([C@@H]6CCCN6C(=O)[C@@H](NC(=O)OC)C(C)C)[nH]c54)c3)cc2)[nH]1)C(C)C [Example 82]
- EC50 (HCV GT 1a replicon): 0.059 nM
- EC50 (HCV GT 3a replicon): 5 nM
- EC50 [1]: 3 nM

Compound: COC(=O)N[C@H](C(=O)N1[C@H](c2nc3ccc4cc(-c5ccc(-c6cnc([C@@H]7C[C@@]8(CCCOC8)CN7C(=O)[C@H](NC(=O)OC)C7C[C@@H](C)O[C@H](C)C7)[nH]6)cc5)ccc4c3[nH]2)C[C@@H]2CCCC[C@@H]21)C(C)C (stereo in doubt) [Compound 39]
- EC50 (HCV GT 1a replicon): 0.214 nM
- EC50 (HCV GT 3a replicon): 48 nM
- EC50 [1]: 0.05 nM

Compound: COC(=O)N[C@H](C(=O)N1C[C@@]2(CCOC2)C[C@H]1c1ncc(-c2ccc(-c3ccc4c(ccc5nc([C@@H]6C[C@]7(CCOC7)CN6C(=O)[C@@H](NC(=O)OC)C(C)C)[nH]c54)c3)cc2)[nH]1)C(C)C [Compound 49]
- EC50 (HCV GT 1a replicon): 0.01 nM
- EC50 (HCV GT 3a replicon): 5 nM
- EC50 [1]: 0.2 nM

Compound: COC(=O)N[C@H](C(=O)N1C[C@]2(CCCOC2)C[C@H]1c1ncc(-c2ccc(-c3ccc4c(ccc5nc([C@@H]6CC7(CC7)CN6C(=O)[C@@H](NC(=O)OC)C(C)C)[nH]c54)c3)cc2)[nH]1)C(C)C [Compound 28]
- EC50 (HCV GT 1a replicon): 0.011 nM
- EC50 (HCV GT 3a replicon): 0.5 nM
- EC50 [1]: 0.06 nM

Compound: COC(=O)N[C@H](C(=O)N1C[C@]2(CCCOC2)C[C@H]1c1ncc(-c2ccc3c(ccc4cc(-c5cnc([C@@H]6C[C@@H]7CCCC[C@@H]7N6C(=O)[C@@H](NC(=O)OC)C(C)C)[nH]5)ccc43)c2)[nH]1)C(C)C [Compound 17]
- EC50 (HCV GT 1a replicon): 0.012 nM
- EC50 (HCV GT 3a replicon): 6 nM
- EC50 [1]: 0.01 nM

Compound: COC(=O)N[C@H](C(=O)N1C[C@]2(CCCOC2)C[C@H]1c1ncc(-c2ccc(-c3ccc(-c4cnc([C@@H]5C[C@@H]6CCC[C@@H]6N5C(=O)[C@@H](NC(=O)OC)C(C)C)[nH]4)cc3)cc2)[nH]1)C(C)C [Compound 37]
- EC50 (HCV GT 1a replicon): 0.008 nM
- EC50 (HCV GT 3a replicon): 3 nM
- EC50 [1]: 0.02 nM

Compound: COC(=O)N[C@H](C(=O)N1CCC[C@H]1c1nc2ccc3cc(-c4ccc5c(ccc6nc([C@@H]7CCCN7C(=O)[C@@H](NC(=O)OC)C(C)C)[nH]c65)c4)ccc3c2[nH]1)C(C)C [Example 101]
- EC50 (HCV GT 1a replicon): 0.011 nM
- EC50 (HCV GT 3a replicon): 0.05 nM
- EC50 [1]: 0.2 nM

Compound: COC(=O)N[C@H](C(=O)N1CC2(CC2)C[C@H]1c1ncc(-c2ccc(-c3ccc4c(ccc5nc([C@@H]6C[C@@]7(CCCOC7)CN6C(=O)[C@@H](NC(=O)OC)C(C)C)[nH]c54)c3)cc2)[nH]1)C(C)C [Compound 8]
- EC50 (HCV GT 1a replicon): 0.01 nM
- EC50 (HCV GT 3a replicon): 0.9 nM
- EC50 [1]: 0.1 nM

Compound: COC(=O)N[C@H](C(=O)N1C[C@]2(CCCOC2)C[C@H]1c1ncc(-c2ccc(-c3ccc4c(c3)OCc3nc([C@@H]5C[C@@H]6CCCC[C@@H]6N5C(=O)[C@@H](NC(=O)OC)C(C)C)[nH]c3-4)cc2)[nH]1)C(C)C [Compound 42]
- EC50 (HCV GT 1a replicon): 0.006 nM
- EC50 (HCV GT 3a replicon): 1 nM
- EC50 [1]: 0.05 nM

Compound: COC(=O)N[C@H](C(=O)N1C[C@]2(CCCOC2)C[C@H]1c1ncc(-c2ccc(-c3ccc(-c4cnc([C@@H]5C[C@@H]6CCCC[C@@H]6N5C(=O)[C@@H](NC(=O)OC)C(C)C)[nH]4)cc3)cc2)[nH]1)C(C)C [Compound 32]
- EC50 (HCV GT 1a replicon): 0.007 nM
- EC50 (HCV GT 3a replicon): 2 nM
- EC50 [1]: 0.04 nM

Compound: COC(=O)N[C@H](C(=O)N1C[C@]2(CCCOC2)C[C@H]1c1nc2ccc3cc(-c4ccc5c(ccc6nc([C@@H]7C[C@@H]8CCC[C@@H]8N7C(=O)[C@@H](NC(=O)OC)C(C)C)[nH]c65)c4)ccc3c2[nH]1)C(C)C [Compound 9]
- EC50 (HCV GT 1a replicon): 0.007 nM
- EC50 (HCV GT 3a replicon): 0.06 nM
- EC50 [1]: 0.01 nM

Compound: COC(=O)N[C@H](C(=O)N1C[C@]2(CCCOC2)C[C@H]1c1ncc(-c2ccc(-c3ccc4c(ccc5nc([C@@H]6C[C@@H]7C[C@@H]7N6C(=O)[C@@H](NC(=O)OC)C(C)C)[nH]c54)c3)cc2)[nH]1)C(C)C [Compound 20]
- EC50 (HCV GT 1a replicon): 0.014 nM
- EC50 (HCV GT 3a replicon): 1 nM
- EC50 [1]: 0.2 nM

Compound: COC(=O)N[C@H](C(=O)N1C[C@@]2(CCCOC2)C[C@H]1c1ncc(-c2ccc(-c3ccc4c(ccc5nc([C@@H]6CCCN6C(=O)[C@@H](NC(=O)OC)C(C)C)[nH]c54)c3)cc2)[nH]1)C(C)C [Compound 27]
- EC50 (HCV GT 1a replicon): 0.013 nM
- EC50 (HCV GT 3a replicon): 297 nM
- EC50 [1]: 0.06 nM

Compound: COC(=O)N[C@H](C(=O)N1C[C@]2(CCCOC2)C[C@H]1c1nc2ccc3cc(-c4ccc5c(ccc6nc([C@@H]7C[C@@H]8CCCC[C@@H]8N7C(=O)[C@@H](NC(=O)OC)C(C)C)[nH]c65)c4)ccc3c2[nH]1)C(C)C [Compound 23]
- EC50 (HCV GT 1a replicon): 0.012 nM
- EC50 (HCV GT 3a replicon): 0.06 nM
- EC50 [1]: 0.01 nM
